# Patent US20220370604A1, “PEPTIDE VACCINE FOR VIRUS INFECTION” (Vacino Biotech Co., Ltd., priority 2021, published 2022)
# Ends that are not written are not given here.
# Columns and labels:
# [1] = system: Human SARS-CoV-2 Spike (trimer); assay: Immunization of mice, anti-spike IgG ELISA; type: in vivo; conditions: Day 41 vs Day -1, BALB/c mice
# [2] = system: CD8^+ T cells in human PBMCs (HLA-A201^+); assay: MHC class I tetramer assay; type: cell-based; conditions: human PBMC (HLA-A201^+), 30 nM tetramer, 20 minutes; FIG. 3
# Protocol: Human PBMCs were treated with MHC class I tetramers binding with Peptide 1 (SEQ ID NO: 1) or Peptide 12 (SEQ ID NO: 12) for 20 minutes, co-stained with anti-CD8 antibodies, and then analyzed with a flow cytometer. Results are presented as mean with error bars representing standard error (n=3). *p<0.05.
# MHC class I tetramer assay. […] Then, 50 µL of the obtained folded monomer were mixed with the equivalent of 2.1 μL of a 0.2 mg/mL streptavidin-fluorophore and incubated in the dark at 4° C. for at least 1 hour to tetramerized the monomer. The tetramer was diluted to 30 nM in FACS buffer (PBS with 1% v/v BSA and 0.1% v/v NaN3) for staining of human T cells.
# Next, around 1-2×10^5 human peripheral blood mononuclear cells (PBMCs, HLA-A201^+) ([…] Technologies Inc, Vancouver, British Columbia, Canada) in FACS buffer were seeded onto a 96-well microplate. The cells were centrifuged at 700×g for 3 minutes, and the supernatant was removed. The cells were resuspended with 40 μL of the diluted tetramer and incubated in the dark at room temperature (RT) for 20 minutes. The cells were washed once in cold FACS buffer and centrifuged at 700×g for 3 minutes. […] The cells were washed twice in cold FACS buffer, resuspended in FACS buffer, and analyzed in a flow cytometer (BD LSRFortessa™X20, Franklin Lakes, N.J., U.S.).
# HLA-A201 = HLA-A201 (Homo sapiens, UniProt P04439, D140Y/D185E/D98H/E176V/E277Q/G131W/G231S/I119V/I121R/I166T/I218V/N151K/N90K/P208A/P217A/Q86G/Q94H/R138H/R169H); assay: MHC-peptide binding assay (MHC class I refolding assay, easYmer)
# Protocol: Different concentrations of peptides were incubated with β2-microglobulin light chain subunit and biotin-labeled recombinant HLA-A201 to form peptide-HLA complexes. The peptide-HLA complexes were then captured by streptavidin-coated beads and detected by anti-human β2-microglobulin antibody on flow cytometry. Each data point represents the mean fluorescence intensity corresponding to the number of the formed peptide-HLA complex, and the error bars represent standard deviation (n=2).
# Each bar represents the mean fluorescence intensity corresponding to the number of the formed peptide-HLA complex, and the error bars represent standard deviation (n=2).
# MHC-peptide binding assay. […] MHC class I refolding assay (easYmer, immunAware Aps, Copenhagen, Denmark) was preformed according to manufacturer's instruction. […] The biotin-labeled peptide-HLA complex was then captured by streptavidin-coated beads and detected by PE-conjugated anti-human β2-microglobulin on flow cytometry. […] No peptide was used in the negative control.
# [3] = Immunization of mice, total IgG ELISA; type: in vivo, BALB/c mice; conditions: for total IgG antibodies: BALB/c mice, ***p<0.001
# Protocol: Immunization of mice. To determine the immunogenicity of the antigen peptides of the present invention, Peptide 1 (SEQ ID NO: 1) of the present invention were used as an example for mice model. Ten (10) female BALB/c mice (7-9 weeks old) supplied by Envigo (Indianapolis, Ind., USA) were intramuscularly injected with 3 shots of 45 μg Peptide 1 (SEQ ID NO: 1) at 2 weeks apart (on Days 0, 14, and 28). Serum was collected before the day of each immunization (on Days−1, 13, and 27). Terminal blood collection was performed on Day 41. Isolated serum was stored at −80° C. until serological analysis. Serum samples collected one day prior to the first injection (on Day−1, pre-dose group) and serum samples collected 2 weeks after the third injection (on Day 41, post-dose group) were used for anti-spike IgG ELISA assay.
# Total IgG ELISA. IgG (Total) Mouse Uncoated ELISA kit (Cat. No. 88-50400, Thermo Fisher Scientific, MA, USA) was used for total IgG ELISA according to manufacturer's instruction. Briefly, Nunc™ MaxiSorp™ 9018 ELISA plate was coated with 100 μL/well of capture antibody in Coating Buffer and incubated overnight at 4° C. The plate was washed twice with 400 μL/well Wash Buffer. After the wells were blocked with 250 μL of Blocking Buffer and incubated at room temperature for 2 hours, the plate was washed twice. The standards were serially diluted with Assay Buffer A at 2-fold to make the standard curve. Then, 100 μL/well of Assay Buffer A were added to the blank wells, and 90 μL/well of Assay Buffer A were added to the sample wells. Serum samples were diluted at least 10,000-fold in Assay Buffer A, and then 10 μL/well of the prediluted serum samples were added to the appropriate wells. Fifty (50) μL/well of diluted Detection Antibody were added to all wells. Then, the plate was covered and incubated at room temperature for 2 hours, and washed four times after the incubation. […] After that, 100 μL of Stop Solution were added to each well, and the plate was read at OD 450 nm with a microplate reader. […]
# [4] = system: CD4^+ T cells in human PBMCs (HLA-A201^+); assay: Intracellular cytokine staining and multiparameter flow cytometry; type: cell-based; conditions: Day 12
# Protocol: Human PBMCs were treated with Peptide 1 (SEQ ID NO: 1) at the concentrations of 0.4, 2, 10, 50, 250 nM for 12 days and then subject to intracellular cytokine staining and multiparameter flow cytometry.
# Human PBMCs were treated with Peptide 12 (SEQ ID NO: 12) at the concentrations of 0.4, 2, 10, 50, 250 nM for 12 days and then subject to intracellular cytokine staining and multiparameter flow cytometry.
# Intracellular cytokine staining and multiparameter flow cytometry. Around 1-2×10^5 human PBMCs (HLA-A201^+) ([…] Technologies Inc, Vancouver, British Columbia, Canada) were seeded onto 96-well microplate in X-VIVO 15 medium. […] The culture medium was refreshed every 5 days, and on the 12th day after treatment with the peptides, the cells were collected and stained with anti-CD4-PerCP-Cy5.5 conjugated, IFN-γ-FITC chrome conjugated, and IL4-PE chrome conjugated antibodies according to the manufacturer's instruction. After that, the cells were washed twice in cold FACS buffer, resuspended in FACS buffer, and analyzed in a flow cytometer ((BD LSRFortessa™X20, Franklin Lakes, N.J., U.S.).
sequence,measurement,setting,value
KLNSGDSKV [Peptide 1],anti-spike IgG antibodies,"[1]; intramuscular, 45 μg, FIG. 5B, ***p<0.001",induced anti-spike IgG antibodies
same,anti-spike IgG antibodies,"[1]; oral, 200 μg formulated with 1% (v/v) PLCL-PEG-PLCL, FIG. 7B, **p<0.01",induced anti-spike IgG antibodies
same,antigen specific cytotoxic T cells (CTLs) detected by MHC class I tetramer staining,[2],can be detected
same,"binding affinity for HLA-A201, times as high as that of CMVpp65495-503 (positive control)","HLA-A201; 8.9 nM peptide, FIG. 1, mean fluorescence intensity of peptide-HLA complex",1.8 times
same,binding affinity for HLA-A201 compared with CMVpp65495-503 (positive control),"HLA-A201; concentration of 3 nM and 8.9 nM, FIG. 1",higher binding affinity for HLA-A201 than CMVpp65495-503
same,total IgG antibodies,"[3]; intramuscular, 45 μg, Days 0, 14, 28, FIG. 5A",induced total IgG antibodies
same,"total IgG, course over administrations","[3]; intramuscular, 45 μg, sera on Days -1, 13, 27, 41, FIG. 5A",reaches to the plateau after second administration
same,total IgG antibodies,"[3]; oral, 200 μg formulated with 1% (v/v) PLCL-PEG-PLCL, Day 41 vs Day -1, FIG. 7A",induced total IgG antibodies
same,IL-4 secretion by T helper cells (CD4^+ cells),[4]; 50 nM peptide,higher level
same,IFN-γ secretion by T helper cells (CD4^+ cells),[4]; 250 nM peptide,higher level
KLNSGLSKV [Peptide 12],antigen specific cytotoxic T cells (CTLs) detected by MHC class I tetramer staining,[2],can be detected
